# Data taken from patent US20230380424A1, “IMPROVEMENTS IN OR RELATING TO COPPER BASED PESTICIDES” (AGRONATURALIS LTD, priority 2020, published 2023).
# Columns and labels:
# [1] = Surface tension of spray compositions (Kruss DSA30 Drop shape analyser); type: physicochemical; details: composition with 15 ppm copper hydroxide
# Description: (§1) The surface wetting and deposition of copper from spray compositions was determined by comparing compositions containing 15 ppm copper hydroxide with varying amounts of sodium lauryl sulfate (Agnique SLS) on its own, varying amounts of sodium dioctyl sulfosuccinate (Geropon SDS) on its own and various mixtures of the two surfactants.
# (§2) The measurements were made using a Kruss DSA30 Drop shape analyser.
# [2] = Contact angle of spray compositions (Kruss DSA30 Drop shape analyser); type: physicochemical; details: composition with 15 ppm copper hydroxide
# Description: as §1
# Contact angles of the same compositions were also measured.
# as §2
SMILES,surface tension (actual) ([1]; 5 ppm surfactant) [mN/m],surface tension (actual) ([1]; 20 ppm surfactant) [mN/m],surface tension (actual) ([1]; 50 ppm surfactant) [mN/m],surface tension (actual) ([1]; 125 ppm surfactant) [mN/m],surface tension (actual) ([1]; 250 ppm surfactant) [mN/m],contact angle ([2]; across all rates) [°],contact angle trend with concentration [2]
"CCCCCCCCCCCCOS(=O)(=O)[O-].[Na+] [Agnique SLS, sodium lauryl sulfate]",70.4,70.5,67.3,64.7,64.6,> 100,
"CCCCCCCCOC(=O)CC(C(=O)OCCCCCCCC)S(=O)(=O)O.[Na] (stereo not drawn) [Geropon SDS, sodium dioctyl sulfosuccinate]",70.0,55.5,49.6,47.6,43.9,,stepwise reduction from 5 ppm onwards
